Experimental data: PubChem BioAssay AID2202554 (NIEHS Division of Translational Toxicology (DTT))
Records with an inconclusive call do not appear. Active and inactive are the calls of the source. No rule for the calls is given here.

What follows are compounds tested on S. typhimurium/E. coli reverse mutation, colony counts (assay: Bacterial reverse mutation test (aka Ames test) summary data).
Procedure, shortened: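 S. typhimurium his⁻ strains (TA97–TA1538) and E. coli WP2 uvrA pKM101 trp⁻, dosed over a range with or without rat, hamster or mouse liver S9. Preincubated 20 min at 37° C (or plate incorporation), plated in agar, incubated usually two days. Revertant colonies counted against negative controls.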

Row | SMILES | outcome
1 | CCCCCCCCCCCC(=O)[O][Sn]([CH2]CCC)([CH2]CCC)[O]C(=O)CCCCCCCCCCC | inactive; negative
2 | Cc1cc(Br)ccc1NC(=O)CCl | active; positive
3 | C1CNCCN1 | inactive; negative
4 | ClC1=C(Cl)C2(Cl)C3C(Cl)C(Cl)CC3C1(Cl)C2(Cl)Cl (stereo not drawn) | inactive; negative
5 | CN(C)C(=S)[S-].CN(C)C(=S)[S-].[Pb+2] | active; positive
6 | O=C(O)C(F)(F)C(F)(F)C(F)(F)C(F)(F)C(F)(F)C(F)(F)C(F)(F)C(F)(F)C(F)(F)C(F)(F)C(F)(F)F | inactive; negative
7 | Cc1c(N)cccc1N | active; positive
8 | COC(=O)[C@H]1[C@H]2C[C@@H]3c4[nH]c5cc(OC)ccc5c4CCN3C[C@H]2C[C@@H](OC(=O)/C=C/c2cc(OC)c(OC)c(OC)c2)[C@@H]1OC | inactive; negative
9 | Clc1ccc(C(c2ccc(Cl)cc2)C(Cl)Cl)cc1 | inactive; negative
10 | C=C(C)C1CC=C(C)C(OC(C)=O)C1 (stereo not drawn) | inactive; negative
11 | COc1cc(-c2ccc(N)c(OC)c2)ccc1N | active; positive
12 | CC(=O)c1ccccn1 | inactive; negative
13 | C=CC1CC=CCC1 (stereo not drawn) | inactive; negative
14 | c1ccc(CSCc2ccccc2)cc1 | inactive; negative
15 | CN(C)c1nc(N(C)C)nc(N(C)C)n1 | inactive; negative
16 | O=S1(=O)CC=CC1 | inactive; negative
17 | COc1ccc(Cc2nccc3cc(OC)c(OC)cc23)cc1OC | inactive; negative
18 | c1ccc2cc3ccccc3cc2c1 | active; weakly positive
19 | NC(=O)c1ccccc1O | inactive; negative
20 | CC(C)C(C)(C)C(C)(C)C(C)(C)S | inactive; negative
21 | CNc1ccccc1N | active; positive
22 | CCCCC(CC)CO (stereo not drawn) | inactive; negative
23 | C[Si](C)(C)O[Si](C)(O[Si](C)(C)C)O[Si](C)(C)C | inactive; negative
24 | Cc1ccc(C(=O)O)cc1 | inactive; negative
25 | CN | inactive; negative

Row | SMILES | outcome
26 | CN(C)[C@@H]1C(=O)C(C(N)=O)=C(O)[C@@]2(O)C(=O)C3=C(O)c4c(O)cccc4[C@@](C)(O)[C@H]3[C@H](O)[C@@H]12 | inactive; negative
27 | C=C(C)c1ccccc1 | inactive; negative
28 | c1cc2c3c(cccc3c1)CC2 | inactive; negative
29 | Cc1cccc(C)c1[N+](=O)[O-] | active; weakly positive
30 | CCOc1cccc(N)c1 | active; weakly positive
31 | CN(C)CCOC(C)(c1ccccc1)c1ccccn1 (stereo not drawn) | inactive; negative
32 | Cc1cc(=O)oc2cc(O)cc(O)c12 | inactive; negative
33 | CC(C)(OOC(C)(C)c1ccccc1)c1ccccc1 | inactive; negative
34 | C[C@H]1CCC[C@H](O)CCCCCc2cc(O)cc(O)c2C(=O)O1 | inactive; negative
35 | Nc1ncn([C@@H]2O[C@H](CO)[C@@H](O)[C@H]2O)c(=O)n1 | active; positive
36 | C=C(C#N)C(=O)OCC | inactive; negative
37 | Clc1ccccc1Cl | inactive; negative
38 | Cc1cccc([N+](=O)[O-])c1C(=O)O | active; positive
39 | CC(=O)c1ccc(S(=O)(=O)NC(=O)NC2CCCCC2)cc1 | inactive; negative
40 | Nc1ccccc1C(=O)O | inactive; negative
41 | O=C(O)C(Br)(Br)Br | active; positive
42 | O=C(O)c1cc(=O)[nH]c(=O)[nH]1 | inactive; negative
43 | CC(=O)c1nccs1 | inactive; negative
44 | CC(C)[N+](C)(CCOC(=O)C1c2ccccc2Oc2ccccc21)C(C)C | inactive; negative
45 | COc1ccc(C2=N[C@H](c3ccc(Cl)cc3)[C@H](c3ccc(Cl)cc3)N2C(=O)N2CCNC(=O)C2)c(OC(C)C)c1 | inactive; negative
46 | COP(=O)(OC)OC=C(Cl)Cl | active; positive
47 | OCCNCCO | inactive; negative
48 | Clc1cc(Cl)c(Cl)c(Cl)c1Cl | inactive; negative
49 | CNC(=O)NC | inactive; negative
50 | CC(C)(C#N)C(C)(C)C#N | inactive; negative

Row | SMILES | outcome
51 | Nc1ccc(N)c2ccccc12 | active; positive
52 | CC/C=C\C/C=C\C/C=C\CCCCCCCC(=O)O | active; weakly positive
53 | COc1ccc(C(Cl)=C(c2ccc(OC)cc2)c2ccc(OC)cc2)cc1 | inactive; negative
54 | CC(C)=CCC1CCCC1=O (stereo not drawn) | inactive; negative
55 | COC=O | inactive; negative
56 | C=CC#N | active; positive
57 | CCc1ccc(C(c2ccc(CC)cc2)C(Cl)Cl)cc1 | active; positive
58 | OCCN(CCO)CCO | inactive; negative
59 | CCCCCN(CCCCC)CCCCC | inactive; negative
60 | C=CCO | inactive; negative
61 | C1CCCNCC1 | inactive; negative
62 | CCN(CC)N=O | active; positive
63 | CCC(CO)[N+](=O)[O-] (stereo not drawn) | inactive; negative
64 | COc1ccc2cc3[n+](cc2c1OC)CCc1cc2c(cc1-3)OCO2 | inactive; negative
65 | O=c1ccc(O)n[nH]1 | active; weakly positive
66 | O=[N+]([O-])c1cccc2c([N+](=O)[O-])cccc12 | active; positive
67 | C=CC(=O)OCC(CO)(COCC(COC(=O)C=C)(COC(=O)C=C)COC(=O)C=C)COC(=O)C=C | inactive; negative
68 | C=CC1CO1 (stereo not drawn) | active; positive
69 | C=C(C)CCl | active; weakly positive
70 | O=S(=O)(O)c1cc(N=Nc2c(O)ccc3ccccc23)ccc1-c1ccc(N=Nc2c(O)ccc3ccccc23)cc1S(=O)(=O)O | inactive; negative
71 | NC(=O)NN=Cc1ccc([N+](=O)[O-])o1 | active; positive
72 | Oc1cc(Cl)c(Cl)c(Cl)c1 | inactive; negative
73 | CC1=CC(=O)CC(C)(C)[C@@]1(O)/C=C/C(C)=C\C(=O)O | inactive; negative
74 | CC(=O)OCCC(C)C | inactive; negative
75 | CN(C)C(=O)Nc1ccc(Cl)cc1 | inactive; negative

Row | SMILES | outcome
76 | C[N+](C)=c1ccc2nc3ccc(N)cc3sc-2c1 | active; positive
77 | c1ccncc1 | inactive; negative
78 | COc1ccc(N)cc1 | active; positive
79 | NC(=NCCCCCCN=C(N)/N=C(\N)Nc1ccc(Cl)cc1)/N=C(\N)Nc1ccc(Cl)cc1 | inactive; negative
80 | CCC1NC(=O)c2cc(S(N)(=O)=O)c(Cl)cc2N1 (stereo not drawn) | inactive; negative
81 | COc1ccc(C(=O)c2ccccc2)c(O)c1 | active; weakly positive
82 | OCCBr | active; positive
83 | Oc1cccc(Nc2ccccc2)c1 | inactive; negative
84 | COP(=S)(OC)Oc1ccc(SC)c(C)c1 | active; weakly positive
85 | CCOc1ccccc1C(N)=O | inactive; negative
86 | C=CC(=O)NCNC(=O)C=C | active; positive
87 | OC(c1ccc(Cl)cc1)(c1ccc(Cl)cc1)C(Cl)(Cl)Cl | inactive; negative
88 | ClC1C(Cl)C(Cl)C(Cl)C(Cl)C1Cl (stereo not drawn) | inactive; negative
89 | O=C(Cl)c1ccc([N+](=O)[O-])cc1 | active; positive
90 | O=C(O)CNC(=O)c1ccc([N+](=O)[O-])cc1 | active; positive
91 | CC(C)(C)OC=O | inactive; negative
92 | CC(C)(C)CC(C)(C)c1ccc(OCCOCC[N+](C)(C)Cc2ccccc2)cc1 | inactive; negative
93 | Cc1cscn1 | inactive; negative
94 | Cc1cccc(OP(=O)(Oc2cccc(C)c2)Oc2cccc(C)c2)c1 | inactive; negative
95 | [CH3][Sn]([Cl])([Cl])[Cl] | inactive; negative
96 | [O-][N+](=Nc1ccc(Cl)c(Cl)c1)c1ccc(Cl)c(Cl)c1 | inactive; negative
97 | CC(C)=CCC/C(C)=C/CC/C(C)=C/CC/C=C(\C)CC/C=C(\C)CCC=C(C)C | inactive; negative
98 | O=C1OC(c2ccc(O)cc2)(c2ccc(OC3O[C@H](C(=O)O)[C@@H](O)[C@H](O)[C@H]3O)cc2)c2ccccc21 (stereo partly drawn) | inactive; negative
99 | COC(=O)C(c1ccccc1)C1CCCCN1 (stereo not drawn) | inactive; negative
100 | O=c1ccc(=O)[nH][nH]1 | inactive; negative

Row | SMILES | outcome
101 | Clc1cccc(C(Cl)(Cl)Cl)n1 | active; positive
102 | CC1CCCC1 | inactive; negative
103 | CCOC=O | inactive; negative
104 | O=C(CCl)c1ccc(Cl)cc1Cl | active; positive
105 | O=c1c2ccccc2c(=O)c2c1ccc1[nH]c3c(ccc4c(=O)c5ccccc5c(=O)c43)[nH]c12 | inactive; negative
106 | NS(=O)(=O)c1cc2c(cc1Cl)NCNS2(=O)=O | inactive; negative
107 | COc1ccc(C(=O)c2ccccc2O)c(O)c1 | active; positive
108 | CC(C)S | inactive; negative
109 | CCNNCC | inactive; negative
110 | CC1CCC2CC1C2(C)C (stereo not drawn) | inactive; negative
111 | Cc1ccc2cccnc2c1 | active; positive
112 | CCCCCCCC(=O)OCC(COC(=O)CCCCCCC)OC(=O)CCCCCCC | active; positive
113 | CCCCCCCCCCCOC(=O)c1ccccc1C(=O)OCCCCCCCCCCC | inactive; negative
114 | Cc1cc(N)ccc1-c1ccc(N)cc1C | active; positive
115 | O=CC(Cl)(Cl)Cl | active; weakly positive
116 | CC=O | inactive; negative
117 | O=C1C(c2[nH]c3ccccc3c2O)=Nc2ccccc21 | active; positive
118 | Cc1ccccc1N | active; positive
119 | CC(=O)Nc1ccc(N=Nc2cc(C)ccc2O)cc1 | active; positive
120 | CC(O)CNCC(C)O (stereo not drawn) | inactive; negative
121 | CCCCCCOC(=O)c1ccccc1C(=O)OCCCCCC | inactive; negative
122 | CN(C)c1ccc(C(=O)c2ccc(N(C)C)cc2)cc1 | active; positive
123 | CC1(C)C(=O)N(Cl)C(=O)N1Cl | inactive; negative
